In PubChem BioAssay (NCI):
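All cell lines were grown in 96-well plates and treated with compound for 48 hours. TGI: total growth inhibition.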

Experiments:
Assay in all cases: growth of human tumour cells (NCI), 48 h
[1] = tested on: SK-MEL-5 melanoma
[2] = tested on: ACHN renal
[3] = tested on: SK-MEL-2 melanoma
[4] = tested on: NCI-H460 lung
[5] = tested on: KM12 colon
[6] = tested on: SN12C renal
[7] = tested on: HOP-92 NSCLC
[8] = tested on: NCI-H23 lung
[9] = tested on: SF-539 CNS
[10] = tested on: COLO 205 colon
[11] = tested on: SK-MEL-28 melanoma
[12] = tested on: DU-145 prostate
[13] = tested on: NCI-H522 lung
[14] = tested on: UO-31 renal
[15] = tested on: HT29 colon
[16] = tested on: SK-OV-3 ovarian
[17] = tested on: MDA-MB-231 breast
[18] = tested on: HCT-116 colon
[19] = tested on: MCF7 breast
[20] = tested on: CCRF-CEM leukemia
[21] = tested on: SR leukemia
[22] = tested on: MDA-MB-435
[23] = tested on: HL-60(TB) leukemia
[24] = tested on: HCT-15 colon
[25] = tested on: SNB-19 CNS
[26] = tested on: K-562 leukemia
[27] = tested on: SW-620 colon
[28] = tested on: TK-10 renal
[29] = tested on: HOP-62 NSCLC
[30] = tested on: EKVX NSCLC
[31] = tested on: HS 578T breast
[32] = tested on: SF-295 CNS
[33] = tested on: SF-268 CNS
[34] = tested on: NCI-H226 lung
[35] = tested on: OVCAR-3 ovarian
[36] = tested on: RXF 393 renal
[37] = tested on: RPMI-8226 leukemia
[38] = tested on: MOLT-4 leukemia
[39] = tested on: UACC-257 melanoma
[40] = tested on: M14 melanoma
[41] = tested on: HCC-2998 colon
[42] = tested on: U251 CNS
[43] = tested on: LOX IMVI melanoma
[44] = tested on: MDA-N
[45] = tested on: T-47D breast
[46] = tested on: 786-0 renal
[47] = tested on: UACC-62 melanoma
[48] = tested on: MALME-3M melanoma
[49] = tested on: CAKI-1 renal
[50] = tested on: NCI/ADR-RES ovarian
[51] = tested on: SNB-75 CNS
[52] = tested on: A498 renal
[53] = tested on: OVCAR-8 ovarian
[54] = tested on: OVCAR-5 ovarian
[55] = tested on: A549 NSCLC
[56] = tested on: PC-3 prostate
[57] = tested on: BT-549 breast
[58] = tested on: IGROV1 ovarian
[59] = tested on: OVCAR-4 ovarian

Measured: TGI

CN(C)N1C(=O)SCC(c2ccccc2)(c2ccccc2)C1=O
not listed: [57] | [58] | [59]
> 100 µM: all other assays above

CC(=O)C(C)C(=O)N1C(=O)N(C)C2(C)N(C)C(=O)NC12C (stereo not drawn)
not listed: [20] | [26] | [27] | [34] | [36] | [38] | [39] | [43] | [45] | [52] | [53] | [56]
> 100 µM: all other assays above
